According to BigSolDB 2.1:

O=C(O)Cc1c[nH]c2ccccc12
solubility (mole fraction)
Conditions	278.15 K	283.15 K	288.15 K	293.15 K	298.15 K	303.15 K	308.15 K	313.15 K	318.15 K	323.15 K
in 1,4-dioxane	–	–	2.06e-05	2.2e-05	2.35e-05	2.51e-05	2.69e-05	2.89e-05	3.12e-05	3.38e-05
in DMF	2.98e-05	3.12e-05	3.29e-05	3.47e-05	3.67e-05	3.9e-05	4.16e-05	4.45e-05	4.74e-05	5.07e-05
in DMSO	–	–	–	3.73e-05	3.95e-05	4.2e-05	4.45e-05	4.77e-05	5.12e-05	5.48e-05
in acetone	2.49e-05	2.6e-05	2.73e-05	2.89e-05	3.07e-05	3.26e-05	3.49e-05	3.73e-05	3.98e-05	4.25e-05
in acetonitrile	6.51e-06	6.98e-06	7.47e-06	8.03e-06	8.68e-06	9.36e-06	1.01e-05	1.1e-05	1.2e-05	1.3e-05
in chloroform	2.88e-06	2.99e-06	3.11e-06	3.29e-06	3.48e-06	3.62e-06	3.88e-06	4.07e-06	4.34e-06	4.61e-06
in ethanol	1.17e-05	1.25e-05	1.35e-05	1.47e-05	1.6e-05	1.73e-05	1.86e-05	2.03e-05	2.22e-05	2.41e-05
in ethyl acetate	3.44e-05	3.64e-05	3.85e-05	4.09e-05	4.32e-05	4.58e-05	4.85e-05	5.13e-05	5.43e-05	5.76e-05
in isopropanol	2.15e-05	2.27e-05	2.41e-05	2.56e-05	2.71e-05	2.88e-05	3.1e-05	3.34e-05	3.58e-05	3.88e-05
in methanol	8.95e-06	9.76e-06	1.05e-05	1.17e-05	1.27e-05	1.38e-05	1.53e-05	1.67e-05	1.83e-05	1.99e-05
in n-butanol	2.78e-05	2.9e-05	3.04e-05	3.2e-05	3.39e-05	3.6e-05	3.83e-05	4.09e-05	4.34e-05	4.65e-05
in n-propanol	1.45e-05	1.54e-05	1.65e-05	1.8e-05	1.93e-05	2.08e-05	2.24e-05	2.42e-05	2.62e-05	2.85e-05
